Results taken from ChEMBL document CHEMBL3885861, “Open TG-GATES”.

Species on record: Rattus norvegicus
Assay: Open TG-GATES - Regimen: Daily Repeat
Assay type: toxicity, organism-based, Sprague-Dawley
Parameters: regimen Daily Repeat, gender Male, age 6 weeks
Conditions: in vivo, po, 100 mg/kg, route gavage, dose level Middle; for APTT / Bas / Eos / Fbg / Hb / Ht / Lym / MCH / MCHC / MCV / Mono / Neu / PT / Plat / RBC / Ret / WBC: tissue Blood; for KIDNEY_L / KIDNEY_R / KIDNEY_TOTAL: tissue Kidney; for LIVER: tissue Liver; for A/G / ALP / ALT / AST / BUN / CRE / Ca / Cl / DBIL / GLC / IP / K / LDH / Na / PL / RALB / TBIL / TC / TG / TP / gamma-GTP: tissue Plasma

Work on `CCCNC(=O)NS(=O)(=O)c1ccc(Cl)cc1` [CHLORPROPAMIDE] yielded a TERMINAL_BW (72 h, time 3 day) of 208.2 g, an APTT (72 h, time 3 day) of 17.5 s and a Bas (72 h, time 3 day) of 0%. For the same compound, the Eos (72 h, time 3 day) was 1%, the Fbg (72 h, time 3 day) was 275.8 mg/dL and the Hb (72 h, time 3 day) was 13 g/dL. It also gave a Ht (72 h, time 3 day) of 40.2%, a Lym (72 h, time 3 day) of 77.2% and an MCH (72 h, time 3 day) of 20.8 pg. For the same compound, the MCHC (72 h, time 3 day) was 32.5%, the MCV (72 h, time 3 day) was 64.1 fL and the Mono (72 h, time 3 day) was 2.6%. For the same compound, the Neu (72 h, time 3 day) was 18.2%, the PT (72 h, time 3 day) was 16.2 s and the Plat (72 h, time 3 day) was 111.5 x10_4/uL. The RBC (72 h, time 3 day) was 626.8 x10_4/ul, the Ret (72 h, time 3 day) was 6.2% and the WBC (72 h, time 3 day) was 65.6 x10_2/uL. It also gave a KIDNEY_L (72 h, time 3 day) of 0.9 g, a KIDNEY_R (72 h, time 3 day) of 0.9 g and a KIDNEY_TOTAL (72 h, time 3 day) of 1.8 g. For the same compound, the LIVER (72 h, time 3 day) was 9.3 g, the A/G (72 h, time 3 day) was 0.8 and the ALP (72 h, time 3 day) was 1720.4 IU/L. The ALT (72 h, time 3 day) was 49.2 IU/L, the AST (72 h, time 3 day) was 71.2 IU/L and the BUN (72 h, time 3 day) was 17 mg/dL. The CRE (72 h, time 3 day) was 0.2 mg/dL, the Ca (72 h, time 3 day) was 10.6 mg/dL and the Cl (72 h, time 3 day) was 106.6 meq/L. The DBIL (72 h, time 3 day) was 0.008 mg/dL, the GLC (72 h, time 3 day) was 174.6 mg/dL and the IP (72 h, time 3 day) was 7.7 mg/dL. It also gave a K (72 h, time 3 day) of 3.7 meq/L, an LDH (72 h, time 3 day) of 65.6 IU/L and a Na (72 h, time 3 day) of 142.6 meq/L. The PL (72 h, time 3 day) was 154.6 mg/dL, the RALB (72 h, time 3 day) was 2.6 g/dL and the TBIL (72 h, time 3 day) was 0.022 mg/dL. The TC (72 h, time 3 day) was 85.4 mg/dL, the TG (72 h, time 3 day) was 76.6 mg/dL and the TP (72 h, time 3 day) was 5.7 g/dL. It also gave a gamma-GTP (72 h, time 3 day) of 1 IU/L, a TERMINAL_BW ([…], time 7 day) of 237.9 g and a TERMINAL_BW ([…], time 14 day) of 287.5 g. It also gave a TERMINAL_BW ([…], time 28 day) of 344.3 g, an APTT ([…], time 7 day) of 17.8 s and a Bas ([…], time 7 day) of 0%. For the same compound, the Eos ([…], time 7 day) was 1%, the Fbg ([…], time 7 day) was 277.2 mg/dL and the Hb ([…], time 7 day) was 13.2 g/dL. For the same compound, the Ht ([…], time 7 day) was 39.7%, the Lym ([…], time 7 day) was 77.8% and the MCH ([…], time 7 day) was 20.7 pg. It also gave an MCHC ([…], time 7 day) of 33.2%, an MCV ([…], time 7 day) of 62.3 fL and a Mono ([…], time 7 day) of 2.8%. It also gave a Neu ([…], time 7 day) of 17.2%, a PT ([…], time 7 day) of 16 s and a Plat ([…], time 7 day) of 112.6 x10_4/uL. For the same compound, the RBC ([…], time 7 day) was 638 x10_4/ul, the Ret ([…], time 7 day) was 6.6% and the WBC ([…], time 7 day) was 118.8 x10_2/uL. The APTT ([…], time 14 day) was 17.7 s, the Bas ([…], time 14 day) was 0.2% and the Eos ([…], time 14 day) was 0.8%. For the same compound, the Fbg ([…], time 14 day) was 275.8 mg/dL, the Hb ([…], time 14 day) was 13.8 g/dL and the Ht ([…], time 14 day) was 40.9%. The Lym ([…], time 14 day) was 79.4%, the MCH ([…], time 14 day) was 20.8 pg and the MCHC ([…], time 14 day) was 33.6%. For the same compound, the MCV ([…], time 14 day) was 62 fL, the Mono ([…], time 14 day) was 2.2% and the Neu ([…], time 14 day) was 16.4%. It also gave a PT ([…], time 14 day) of 16 s, a Plat ([…], time 14 day) of 107 x10_4/uL and an RBC ([…], time 14 day) of 660.4 x10_4/ul. It also gave a Ret ([…], time 14 day) of 4.7%, a WBC ([…], time 14 day) of 97.8 x10_2/uL and an APTT ([…], time 28 day) of 19.5 s. For the same compound, the Bas ([…], time 28 day) was 0%, the Eos ([…], time 28 day) was 1% and the Fbg ([…], time 28 day) was 290.4 mg/dL. The Hb ([…], time 28 day) was 14.6 g/dL, the Ht ([…], time 28 day) was 43.4% and the Lym ([…], time 28 day) was 76.4%. It also gave an MCH ([…], time 28 day) of 19.4 pg, an MCHC ([…], time 28 day) of 33.5% and an MCV ([…], time 28 day) of 57.8 fL. It also gave a Mono ([…], time 28 day) of 2.6%, a Neu ([…], time 28 day) of 18.6% and a PT ([…], time 28 day) of 16.2 s. It also gave a Plat ([…], time 28 day) of 107.8 x10_4/uL, an RBC ([…], time 28 day) of 751 x10_4/ul and a Ret ([…], time 28 day) of 2.5%. For the same compound, the WBC ([…], time 28 day) was 90.2 x10_2/uL, the KIDNEY_L ([…], time 7 day) was 1 g and the KIDNEY_R ([…], time 7 day) was 1 g. For the same compound, the KIDNEY_TOTAL ([…], time 7 day) was 2 g, the KIDNEY_L ([…], time 14 day) was 1.2 g and the KIDNEY_R ([…], time 14 day) was 1.2 g. It also gave a KIDNEY_TOTAL ([…], time 14 day) of 2.4 g, a KIDNEY_L ([…], time 28 day) of 1.2 g and a KIDNEY_R ([…], time 28 day) of 1.3 g. For the same compound, the KIDNEY_TOTAL ([…], time 28 day) was 2.5 g, the LIVER ([…], time 7 day) was 11.4 g and the LIVER ([…], time 14 day) was 13.6 g. For the same compound, the LIVER ([…], time 28 day) was 14.2 g, the A/G ([…], time 7 day) was 0.8 and the ALP ([…], time 7 day) was 1392.6 IU/L. The ALT ([…], time 7 day) was 50 IU/L, the AST ([…], time 7 day) was 74.2 IU/L and the BUN ([…], time 7 day) was 18.2 mg/dL. For the same compound, the CRE ([…], time 7 day) was 0.2 mg/dL, the Ca ([…], time 7 day) was 10.8 mg/dL and the Cl ([…], time 7 day) was 107 meq/L. The DBIL ([…], time 7 day) was 0.01 mg/dL, the GLC ([…], time 7 day) was 194.2 mg/dL and the IP ([…], time 7 day) was 7.4 mg/dL. For the same compound, the K ([…], time 7 day) was 3.6 meq/L, the LDH ([…], time 7 day) was 81.8 IU/L and the Na ([…], time 7 day) was 144.4 meq/L. The PL ([…], time 7 day) was 162.2 mg/dL, the RALB ([…], time 7 day) was 2.6 g/dL and the TBIL ([…], time 7 day) was 0.03 mg/dL. For the same compound, the TC ([…], time 7 day) was 85.4 mg/dL, the TG ([…], time 7 day) was 105.4 mg/dL and the TP ([…], time 7 day) was 5.7 g/dL. It also gave a gamma-GTP ([…], time 7 day) of 1 IU/L, an A/G ([…], time 14 day) of 0.8 and an ALP ([…], time 14 day) of 1782.8 IU/L. The ALT ([…], time 14 day) was 41 IU/L, the AST ([…], time 14 day) was 63 IU/L and the BUN ([…], time 14 day) was 18.8 mg/dL. It also gave a CRE ([…], time 14 day) of 0.2 mg/dL, a Ca ([…], time 14 day) of 10.6 mg/dL and a Cl ([…], time 14 day) of 105.8 meq/L. The DBIL ([…], time 14 day) was 0.01 mg/dL, the GLC ([…], time 14 day) was 208.4 mg/dL and the IP ([…], time 14 day) was 7.7 mg/dL. The K ([…], time 14 day) was 3.5 meq/L, the LDH ([…], time 14 day) was 99.6 IU/L and the Na ([…], time 14 day) was 144.6 meq/L. For the same compound, the PL ([…], time 14 day) was 170.2 mg/dL, the RALB ([…], time 14 day) was 2.7 g/dL and the TBIL ([…], time 14 day) was 0.02 mg/dL. For the same compound, the TC ([…], time 14 day) was 77.2 mg/dL, the TG ([…], time 14 day) was 175 mg/dL and the TP ([…], time 14 day) was 5.9 g/dL. It also gave a gamma-GTP ([…], time 14 day) of 1 IU/L, an A/G ([…], time 28 day) of 0.8 and an ALP ([…], time 28 day) of 1238 IU/L. The ALT ([…], time 28 day) was 40.2 IU/L, the AST ([…], time 28 day) was 64 IU/L and the BUN ([…], time 28 day) was 16.2 mg/dL. It also gave a CRE ([…], time 28 day) of 0.2 mg/dL, a Ca ([…], time 28 day) of 10.4 mg/dL and a Cl ([…], time 28 day) of 107.4 meq/L. It also gave a DBIL ([…], time 28 day) of 0.008 mg/dL, a GLC ([…], time 28 day) of 196.6 mg/dL and an IP ([…], time 28 day) of 6.5 mg/dL. For the same compound, the K ([…], time 28 day) was 3.2 meq/L, the LDH ([…], time 28 day) was 72.6 IU/L and the Na ([…], time 28 day) was 144.8 meq/L. It also gave a PL ([…], time 28 day) of 158.8 mg/dL, an RALB ([…], time 28 day) of 2.7 g/dL and a TBIL ([…], time 28 day) of 0.016 mg/dL. The TC ([…], time 28 day) was 73.4 mg/dL, the TG ([…], time 28 day) was 149.6 mg/dL and the TP ([…], time 28 day) was 6 g/dL. For the same compound, the gamma-GTP ([…], time 28 day) was 1 IU/L.
